Several values for one entry are separate records, joined by “and”; a condition that tells them apart may be missing. Identical values can stand only once. Inconclusive results and toxic doses are left out.
Test system: BDF1 mice, B16 melanoma ip, median survival T/C
Test: NCI In Vivo Anticancer Drug Screen. Data for tumor model B16 Melanoma (intraperitoneal) in B6D2F1 (BDF1) mice
Conditions: endpoint: median survival time, higher = longer survival
How it was run: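 Antitumor activity is assessed in mice bearing a transplanted tumor, with survival or tumor size compared against vehicle-dosed controls and expressed as T/C.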

[1] = dose: 12.5 mg/kg/injection, schedule: Q01DX009 (ip), vehicle: Klucel (hydroxypropylcellulose) (HPC)
[2] = dose: 25.0 mg/kg/injection, schedule: Q01DX009 (ip), vehicle: Klucel (hydroxypropylcellulose) (HPC)
[3] = dose: 50.0 mg/kg/injection, schedule: Q01DX009 (ip), vehicle: Klucel (hydroxypropylcellulose) (HPC)
[4] = dose: 100.0 mg/kg/injection, schedule: Q01DX009 (ip), vehicle: Klucel (hydroxypropylcellulose) (HPC)
[5] = dose: 200.0 mg/kg/injection, schedule: Q01DX009 (ip), vehicle: Klucel (hydroxypropylcellulose) (HPC)
[6] = dose: 3.12 mg/kg/injection, schedule: Q01DX009 (ip), vehicle: Klucel (hydroxypropylcellulose) (HPC)
[7] = dose: 6.25 mg/kg/injection, schedule: Q01DX009 (ip), vehicle: Klucel (hydroxypropylcellulose) (HPC)
[8] = dose: 50.0 mg/kg/injection, schedule: Q04DX003 (ip), vehicle: saline
[9] = dose: 400.0 mg/kg/injection, schedule: Q01DX009 (ip), vehicle: Klucel (hydroxypropylcellulose) (HPC)
[10] = dose: 5.0 mg/kg/injection, schedule: Q01DX009 (ip), vehicle: saline with Tween-80
[11] = dose: 10.0 mg/kg/injection, schedule: Q01DX009 (ip), vehicle: saline with Tween-80
[12] = dose: 50.0 mg/kg/injection, schedule: Q01DX009 (ip), vehicle: saline with Tween-80
[13] = dose: 100.0 mg/kg/injection, schedule: Q01DX009 (ip), vehicle: saline with Tween-80
[14] = dose: 200.0 mg/kg/injection, schedule: Q01DX009 (ip), vehicle: saline with Tween-80
[15] = dose: 50.0 mg/kg/injection, schedule: Q01DX009 (ip), vehicle: saline
[16] = dose: 100.0 mg/kg/injection, schedule: Q01DX009 (ip), vehicle: saline
[17] = dose: 25.0 mg/kg/injection, schedule: Q01DX009 (ip), vehicle: saline with Tween-80
[18] = dose: 100.0 mg/kg/injection, schedule: Q04DX003 (ip), vehicle: saline with Tween-80
[19] = dose: 100.0 mg/kg/injection, schedule: Q04DX003 (ip), vehicle: saline
[20] = dose: 12.5 mg/kg/injection, schedule: Q01DX009 (ip), vehicle: saline with Tween-80

## C(=N\C(/N=C/c1ccco1)c1ccco1)/c1ccco1
dose: 40.0 mg/kg/injection, schedule: Q01DX009 (ip), vehicle: Klucel (hydroxypropylcellulose) (HPC)
  T/C: 94 % of control
dose: 80.0 mg/kg/injection, schedule: Q01DX009 (ip), vehicle: Klucel (hydroxypropylcellulose) (HPC)
  T/C: 89 % of control
dose: 160.0 mg/kg/injection, schedule: Q01DX009 (ip), vehicle: Klucel (hydroxypropylcellulose) (HPC)
  T/C: 97 % of control
dose: 320.0 mg/kg/injection, schedule: Q01DX009 (ip), vehicle: Klucel (hydroxypropylcellulose) (HPC)
  T/C: 92 % of control

## Clc1ccc2c(Cl)ncnc2c1
[1]
  T/C: 100 % of control
[2]
  T/C: 100 % of control
[3]
  T/C: 102 % of control
[4]
  T/C: 100 % of control
[5]
  T/C: 90 % of control

## C1CCC2OCCOCCOC3CCCCC3OCCOCCOC2C1 (stereo not drawn)
[6]
  T/C: 91 % of control and 95 % of control
[7]
  T/C: 95 % of control and 107 % of control
[1]
  T/C: 106 % of control and 111 % of control
[2]
  T/C: 108 % of control and 121 % of control
[3]
  T/C: 98 % of control

## CS(=O)(=O)OCCN(CCOS(C)(=O)=O)c1ccc(C=Nc2ccc(-c3csc(Cc4ccccc4)n3)cc2)c(Cl)c1
[7]
  T/C: 107 % of control and 110 % of control
[1]
  T/C: 120 % of control
[3]
  T/C: 153 % of control

## CC(N)CCc1ccccc1 (stereo not drawn)
dose: 12.5 mg/kg/injection, schedule: Q04DX003 (ip), vehicle: saline
  T/C: 100 % of control
dose: 25.0 mg/kg/injection, schedule: Q04DX003 (ip), vehicle: saline
  T/C: 108 % of control
[8]
  T/C: 111 % of control

## CCCCC(CCCC)(C(N)=O)C(=O)OCC
[4]
  T/C: 106 % of control
[5]
  T/C: 100 % of control
[9]
  T/C: 103 % of control

## Oc1c(Cl)cc(Cl)cc1/C=N/NC(=S)Nc1cc(C(F)(F)F)cc(C(F)(F)F)c1
dose: 50.0 mg/kg/injection, schedule: Q01DX009 (ip), vehicle: olive oil, sesame oil, peanut oil
  T/C: 92 % of control
dose: 200.0 mg/kg/injection, schedule: Q01DX009 (ip), vehicle: olive oil, sesame oil, peanut oil
  T/C: 96 % of control

## COc1ccc(-c2nc3cc(Cl)ccc3c(=O)o2)cc1
[4]
  T/C: 101 % of control
[5]
  T/C: 115 % of control

## O=[N+]([O-])c1ccc(Cl)c([N+](=O)[O-])c1
[10]
  T/C: 100 % of control and 112 % of control
[11]
  T/C: 94 % of control and 99 % of control
dose: 20.0 mg/kg/injection, schedule: Q01DX009 (ip), vehicle: saline with Tween-80
  T/C: 99 % of control and 102 % of control
dose: 40.0 mg/kg/injection, schedule: Q01DX009 (ip), vehicle: saline with Tween-80
  T/C: 98 % of control and 107 % of control
dose: 80.0 mg/kg/injection, schedule: Q01DX009 (ip), vehicle: saline with Tween-80
  T/C: 100 % of control and 108 % of control

## CCc1ccc(C(=O)CCCCl)cc1
[12]
  T/C: 102 % of control
[13]
  T/C: 100 % of control
[14]
  T/C: 109 % of control

## O=C1NC2(CCCCC2)NC12CCCCC2
dose: 25.0 mg/kg/injection, schedule: Q01DX009 (ip), vehicle: saline
  T/C: 102 % of control
[15]
  T/C: 97 % of control
[16]
  T/C: 97 % of control
dose: 150.0 mg/kg/injection, schedule: Q01DX009 (ip), vehicle: saline
  T/C: 94 % of control
dose: 225.0 mg/kg/injection, schedule: Q01DX009 (ip), vehicle: saline
  T/C: 86 % of control

## CSCCC(C)C
[17]
  T/C: 95 % of control
[12]
  T/C: 89 % of control
dose: 50.0 mg/kg/injection, schedule: Q04DX003 (ip), vehicle: saline with Tween-80
  T/C: 110 % of control
[13]
  T/C: 95 % of control
[18]
  T/C: 97 % of control

## CN(C)c1ccc(C(N)=O)cn1
dose: 1.5 mg/kg/injection, schedule: Q01DX009 (ip), vehicle: Klucel (hydroxypropylcellulose) (HPC)
  T/C: 124 % of control

## Cc1cc(Cl)ccc1NC(=O)c1ccccc1
[4]
  T/C: 103 % of control
[5]
  T/C: 99 % of control
[9]
  T/C: 100 % of control

## Cc1ccc(N=CN(C)Sc2ccc(C(C)(C)C)cc2)c(C)c1
[2]
  T/C: 100 % of control
[3]
  T/C: 98 % of control
[4]
  T/C: 95 % of control
[5]
  T/C: 94 % of control

## O=C(O)c1ccc2sc3ccccc3c(=O)c2c1
dose: 75.0 mg/kg/injection, schedule: Q01DX009 (ip), vehicle: Klucel (hydroxypropylcellulose) (HPC)
  T/C: 100 % of control
dose: 150.0 mg/kg/injection, schedule: Q01DX009 (ip), vehicle: Klucel (hydroxypropylcellulose) (HPC)
  T/C: 96 % of control
dose: 300.0 mg/kg/injection, schedule: Q01DX009 (ip), vehicle: Klucel (hydroxypropylcellulose) (HPC)
  T/C: 96 % of control

## COc1cc2ccc(CCNCc3ccccc3)cc2cc1OC
[8]
  T/C: 92 % of control
[19]
  T/C: 94 % of control

## O=C(Nc1ccc(F)cc1)c1cccc(C(=O)Nc2ccc(F)cc2)c1
[2]
  T/C: 114 % of control
[3]
  T/C: 101 % of control
[4]
  T/C: 96 % of control

## COc1cc2c(cc1OC)[C@H]1CNC[C@H]1[C@@H](c1ccccc1)C2
[15]
  T/C: 123 % of control
[16]
  T/C: 114 % of control

## COc1ccc(C(=S)N2CCN(c3ccccc3)CC2)cc1
[20]
  T/C: 87 % of control
[12]
  T/C: 99 % of control
[14]
  T/C: 87 % of control

## O=C(OCc1ccccc1)C(Cl)(Cl)Cl
[18]
  T/C: 105 % of control
dose: 200.0 mg/kg/injection, schedule: Q04DX003 (ip), vehicle: saline with Tween-80
  T/C: 100 % of control
dose: 400.0 mg/kg/injection, schedule: Q04DX003 (ip), vehicle: saline with Tween-80
  T/C: 102 % of control

## [Cu+2].[NH-]C1(C(=O)O)CCCC1.[NH-]C1(C(=O)O)CCCC1
dose: 2.5 mg/kg/injection, schedule: Q01DX009 (ip), vehicle: saline with Tween-80
  T/C: 93 % of control
[10]
  T/C: 93 % of control
[11]
  T/C: 93 % of control

## CC(=O)OCC1OC(n2cc(CBr)nn2)C(OC(C)=O)C(OC(C)=O)C1OC(C)=O (stereo not drawn)
[6]
  T/C: 97 % of control
[7]
  T/C: 98 % of control
[1]
  T/C: 108 % of control
[2]
  T/C: 100 % of control
[3]
  T/C: 98 % of control

## CCNCc1cc(Nc2cc(C)nc(/N=C(\N)Nc3ccc(Cl)c(Cl)c3)n2)ccc1OC
[7]
  T/C: 100 % of control
[1]
  T/C: 102 % of control
[2]
  T/C: 91 % of control

## O=C(Nc1ccc(F)cc1)C(c1ccccc1)c1ccccc1
[20]
  T/C: 98 % of control
[17]
  T/C: 92 % of control
[12]
  T/C: 89 % of control

## O=[N+]([O-])c1cccc(C(O)C=C(C(F)(F)F)C(F)(F)F)c1 (stereo not drawn)
[17]
  T/C: 93 % of control
[13]
  T/C: 86 % of control

## C/C=C/c1cc2n(c1)C(=O)c1cc(OC3OC(C)C(NC)C(C)(O)C3O)c(C)c(O)c1NC2O (stereo not drawn)
dose: 0.02 mg/kg/injection, schedule: Q04DX003 (ip), vehicle: DMSO
  T/C: 168 % of control
dose: 0.5 micrograms/kg/injection, schedule: Q04DX003 (ip), vehicle: saline
  T/C: 184 % of control
dose: 1.0 micrograms/kg/injection, schedule: Q04DX003 (ip), vehicle: saline
  T/C: 184 % of control
dose: 2.0 micrograms/kg/injection, schedule: Q04DX003 (ip), vehicle: saline
  T/C: 197 % of control
dose: 16.0 micrograms/kg/injection, schedule: Q04DX003 (ip), vehicle: saline
  T/C: 151 % of control

## Cc1ccc(NC(=O)NC(C)C)c(C)c1
[7]
  T/C: 101 % of control
[1]
  T/C: 95 % of control
[2]
  T/C: 94 % of control

## CN1CCC2(CC1)SSC1(CCN(C)CC1)S2
[16]
  T/C: 122 % of control
[19]
  T/C: 91 % of control
dose: 200.0 mg/kg/injection, schedule: Q01DX009 (ip), vehicle: saline
  T/C: 116 % of control
dose: 200.0 mg/kg/injection, schedule: Q04DX003 (ip), vehicle: saline
  T/C: 91 % of control

## O=c1ccc2ccccc2o1
[2]
  T/C: 100 % of control
[3]
  T/C: 105 % of control
[4]
  T/C: 111 % of control
[5]
  T/C: 101 % of control

## Cc1ccc(C)c(NC(=O)Nc2ccc(Cl)cc2)c1
dose: 50.0 mg/kg/injection, schedule: Q01DX009 (ip), vehicle: gum acacia
  T/C: 121 % of control
dose: 100.0 mg/kg/injection, schedule: Q01DX009 (ip), vehicle: gum acacia
  T/C: 92 % of control
dose: 200.0 mg/kg/injection, schedule: Q01DX009 (ip), vehicle: gum acacia
  T/C: 98 % of control

## COc1cc2c(cc1OC)C(C#N)C2 (stereo not drawn)
[7]
  T/C: 105 % of control
[1]
  T/C: 97 % of control and 102 % of control
[2]
  T/C: 111 % of control

## O=C(Nc1ccccc1C(F)(F)F)c1ccc(C(=O)Nc2ccccc2C(F)(F)F)cc1
dose: 8.0 mg/kg/injection, schedule: Q01DX009 (ip), vehicle: saline with Tween-80
  T/C: 88 % of control
dose: 12.0 mg/kg/injection, schedule: Q01DX009 (ip), vehicle: saline with Tween-80
  T/C: 90 % of control
[20]
  T/C: 212 % of control
dose: 18.0 mg/kg/injection, schedule: Q01DX009 (ip), vehicle: saline with Tween-80
  T/C: 88 % of control
[17]
  T/C: 171 % of control
[12]
  T/C: 156 % of control
